EC50 data for 28 molecules are collected here from US11046686B2, “Thiadiazole IRAK4 compounds” (Gilead Sciences, Inc., priority 2018, dated 2021).

Like-named read-outs stand apart in the source and are kept apart here.

In this test the test system is TNFα. Description: IRAK4 Monocyte TNFα Cell Based Assay. Further details: species or system human. To be noted: human monocytes, second part of Table 2, compounds 33-343, unit inferred, read-out: EC50 MONO TNF HTRF. The protocol: IRAK4 Monocyte TNFα Cell Based Assay Procedure:
The cell suspension was then plated at a density of 5,000 cells/well onto black 384 well Greiner clear bottom plates. Plates were pre-spotted with test compounds and serially diluted in DMSO where 40 nL/well were delivered using the Echo 550 acoustic liquid dispenser (Labcyte®) for a final DMSO concentration of 0.1%. Plated cells were treated with compound for 1 hour at 37° C. Cells were then stimulated with 50 pg/ml of LPS (Sigma) excluding outside columns of plate used for unstimulated cell control wells. Cells were incubated for an additional 4 hours at 37° C. Cells were then spun out of the media and 5 μl of sample were taken and analyzed for total TNFα content using the TR-FRET Human TNFα detection system (CisBio). This system utilizes two labeled antibodies (cryptate and XL665) that bind to two different epitopes of the TNFα molecule and produce FRET signal proportional to the concentration of TNFα in the sample. Detection antibodies are mixed 50:50 and 5 μL were dispensed into each well. Plates were covered with clear seals and incubated at room temp overnight. […] Percent of control was calculated as follows: % Control=100×(Ratiosample−Ratio0% stimulation)/(Ratio100% Stimulation−Ratio0% Stimulation) where unstimulated cells (0% stimulation) were the negative control and stimulated cells (100% stimulation) were used as the positive control.

Usually EC50 stands for the concentration giving half of the maximal effect. Consider `CC(=O)N[C@H]1CC[C@H](c2nnc(-c3cnc(-c4ccc5cc(C#N)cnn45)cc3NC3CCOCC3)s2)CC1` [Compound 255, N-((1r,4r)-4-(5-(6-(3-cyanopyrrolo[1,2-b]pyridazin-7-yl)-4-((tetrahydro-2H-pyran-4-yl)amino)pyridin-3-yl)-1,3,4-thiadiazol-2-yl)cyclohexyl)acetamide], for which the 50% effective concentration (EC50) turned out to be 5.1 nM.

`CC(=O)N[C@H]1[C@@H]2CN(c3nnc(-c4cnc(-c5ccc6cc(C#N)cnn56)cc4NC(C)C)s3)C[C@@H]21` [Compound 240, N-((1R,5S,6s)-3-(5-(6-(3-cyanopyrrolo[1,2-b]pyridazin-7-yl)-4-(isopropylamino)pyridin-3-yl)-1,3,4-thiadiazol-2-yl)-3-azabicyclo[3.1.0]hexan-6-yl)acetamide]: the EC50 is 8.9 nM.

In the case of `CC(C)Nc1cc(-c2ccc3cc(C#N)cnn23)ncc1-c1nnc(N2C[C@H]3CC[C@@H](C2)[C@@H]3NC(=O)C2CCN(C)CC2)s1` [Example 100, N-((1R,5S,8s)-3-(5-(6-(3-cyanopyrrolo[1,2-b]pyridazin-7-yl)-4-(isopropylamino)pyridin-3-yl)-1,3,4-thiadiazol-2-yl)-3-azabicyclo[3.2.1]octan-8-yl)-1-methylpiperidine-4-carboxamide], the EC50 was 2.1 nM.

On to `CC(C)Nc1cc(-c2ccc3cc(C#N)cnn23)ncc1-c1nnc(C2CCN(C3COC3)CC2)s1` [Example 138], for which the EC50 stood at 15 nM.

Take `CC(=O)N[C@H]1C[C@H](c2nnc(-c3cnc(-c4ccc5cc(C#N)cnn45)cc3NC(C)C)s2)C1` [Compound 278, N-((1r,3r)-3-(5-(6-(3-cyanopyrrolo[1,2-b]pyridazin-7-yl)-4-(isopropylamino)pyridin-3-yl)-1,3,4-thiadiazol-2-yl)cyclobutyl)acetamide]: the EC50 amounted to 10000 nM.

Take `CC(C)Nc1cc(-c2ccc3cc(C#N)cnn23)ncc1-c1nnc(C(=O)N2CC[C@@H](CO)C2)s1` [Example 216]: the EC50 is 18.1 nM.

In the case of `CC(=O)N1C2CC1CN(c1nnc(-c3cnc(-c4ccc5cc(C#N)cnn45)cc3NC(C)C)s1)C2` [Compound 258, 7-(5-(5-(6-acetyl-3,6-diazabicyclo[3.1.1]heptan-3-yl)-1,3,4-thiadiazo1-2-yl)-4-(isopropylamino)pyridin-2-yl)pyrrolo[1,2-b]pyridazine-3-carbonitrile], the EC50 was found to be 5.8 nM.

With `CC(C)Nc1cc(-c2ccc3cc(C#N)cnn23)ncc1-c1nnc([C@H]2CC[C@H](NC(=O)CN=S(C)(C)=O)CC2)s1` [Compound 339], the EC50 worked out at 9.1 nM.

For `CC(C)Nc1cc(-c2ccc3cc(C#N)cnn23)ncc1-c1nnc(N2C[C@H]3CC[C@@H](C2)[C@@H]3NC(=O)N2CCN(S(C)(=O)=O)CC2)s1` [Example 106, N-((1R,5S,8s)-3-(5-(6-(3-cyanopyrrolo[1,2-b]pyridazin-7-yl)-4-(isopropylamino)pyridin-3-yl)-1,3,4-thiadiazol-2-yl)-3-azabicyclo[3.2.1]octan-8-yl)-4-(methylsulfonyl)piperazine-1-carboxamide], the EC50 stood at 2.6 nM.

Take `CC(C)Nc1cc(-c2ccc3cc(C#N)cnn23)ncc1-c1nnc(N2CCC(O)(CF)CC2)s1` [Example 189]: the concentration giving a half-maximal response (EC50) worked out at 16.3 nM.

As to `CC(C)Nc1cc(-c2ccc3cc(C#N)cnn23)ncc1-c1nnc(N2C[C@H]3CC[C@@H](C2)[C@@H]3NC(=O)C2CC2)s1` [Example 150, N-((1R,5S,8s)-3-(5-(6-(3-cyanopyrrolo[1,2-b]pyridazin-7-yl)-4-(isopropylamino)pyridin-3-yl)-1,3,4-thiadiazol-2-yl)-3-azabicyclo[3.2.1]octan-8-yl)cyclopropanecarboxamide], the EC50 amounted to 5.2 nM.

For `CC(C)Nc1cc(-c2ccc3cc(C#N)cnn23)ncc1-c1nnc(N2C[C@H]3CC[C@@H](C2)[C@@H]3NS(C)(=O)=O)s1` [Example 58, N-((1R,5S,8s)-3-(5-(6-(3-cyanopyrrolo[1,2-b]pyridazin-7-yl)-4-(isopropylamino)pyridin-3-yl)-1,3,4-thiadiazol-2-yl)-3-azabicyclo[3.2.1]octan-8-yl)methanesulfonamide], the 50% effective concentration (EC50) came to 9.3 nM.

Turning to `CC(=O)N[C@H]1[C@@H]2COC[C@H]1CN(c1nnc(-c3cnc(-c4ccc5cc(C#N)cnn45)cc3NC(C)C)s1)C2` [Example 182, N-((1R,5S,9r)-7-(5-(6-(3-cyanopyrrolo[1,2-b]pyridazin-7-yl)-4-(isopropylamino)pyridin-3-yl)-1,3,4-thiadiazol-2-yl)-3-oxa-7-azabicyclo[3.3.1]nonan-9-yl)acetamide], the 50% effective concentration (EC50) stood at 37.8 nM.

For the molecule `CC(C)Nc1cc(-c2ccc3cc(C#N)cnn23)ncc1-c1nnc(N2CCC(F)(F)CC2)s1` [Example 294, 7-(5-(5-(4,4-difluoropiperidin-1-yl)-1,3,4-thiadiazol-2-yl)-4-(isopropylamino)pyridin-2-yl)pyrrolo[1,2-b]pyridazine-3-carbonitrile], the EC50 (Homo sapiens, Monocyte) was found to be 1000 nM.

With `CC(C)Nc1cc(-c2ccc3cc(C#N)cnn23)ncc1-c1nnc(N2CC3(CCNC3=O)C2)s1` [Example 164], the EC50 was determined as 17.5 nM.

In the case of `CC(C)(O)C(=O)N[C@H]1CC[C@@H](c2nnc(-c3cnc(-c4ccc5cc(C#N)cnn45)cc3NC3COC3)s2)CC1` [Example 311, N-((1s,4s)-4-(5-(6-(3-cyanopyrrolo[1,2-b]pyridazin-7-yl)-4-(oxetan-3-ylamino)pyridin-3-yl)-1,3,4-thiadiazol-2-yl)cyclohexyl)-2-hydroxy-2-methylpropanamide], the EC50 was 22.6 nM.

Turning to `CC(C)Nc1cc(-c2ccc3cc(C#N)cnn23)ncc1-c1nnc(N2C[C@H]3CC[C@@H](C2)[C@H]3O)s1` [Example 146, 7-(5-(5-((1R,5S,8r)-8-hydroxy-3-azabicyclo[3.2.1]octan-3-yl)-1,3,4-thiadiazol-2-yl)-4-(isopropylamino)pyridin-2-yl)pyrrolo[1,2-b]pyridazine-3-carbonitrile], the EC50 amounted to 5.2 nM.

As to `CC(C)Nc1cc(-c2ccc3cc(C#N)cnn23)ncc1-c1nnc([C@H]2CC[C@H](NC(=O)C3CC3)CC2)s1` [Example 125, N-((1r,4r)-4-(5-(6-(3-cyanopyrrolo[1,2-b]pyridazin-7-yl)-4-(isopropylamino)pyridin-3-yl)-1,3,4-thiadiazol-2-yl)cyclohexyl)cyclopropanecarboxamide], the EC50 came out at 5.4 nM.

For the molecule `CC(=O)NC1CCC(c2nnc(-c3cnc(-c4ccc5cc(C#N)cnn45)cc3NC3CCC(c4cnn(C(F)F)c4)CC3)s2)CC1` [Example 227, N-((1R,4r)-4-(5-(6-(3-cyanopyrrolo[1,2-b]pyridazin-7-yl)-4-(((1r,4R)-4-(1-(difluoromethyl)-1H-pyrazol-4-yl)cyclohexyl)amino)pyridin-3-yl)-1,3,4-thiadiazol-2-yl)cyclohexyl)acetamide], the EC50 amounted to 14.4 nM.

For `CC(=O)N[C@H]1C[C@H]2CC[C@@H](C1)N2c1nnc(-c2cnc(-c3ccc4cc(C#N)cnn34)cc2NC(C)C)s1` [Example 55, N-((1R,3r,5S)-8-(5-(6-(3-cyanopyrrolo[1,2-b]pyridazin-7-yl)-4-(isopropylamino)pyridin-3-yl)-1,3,4-thiadiazol-2-yl)-8-azabicyclo[3.2.1]octan-3-yl)acetamide], the 50% effective concentration (EC50) was determined as 115 nM.

Take `COC(=O)NC[C@H]1C[C@H](Nc2cc(-c3ccc4cc(C#N)cnn34)ncc2-c2nnc([C@H]3CC[C@H](NC(=O)N4CCOCC4)CC3)s2)C1` [Example 143]: the EC50 came to 3.1 nM.

Take `CC(=O)NC1CC2CC1CC2c1nnc(-c2cnc(-c3ccc4cc(C#N)cnn34)cc2NC(C)C)s1` (stereo not shown) [Example 285, N-(5-(5-(6-(3-cyanopyrrolo[1,2-b]pyridazin-7-yl)-4-(isopropylamino)pyridin-3-yl)-1,3,4-thiadiazol-2-y)bicyclo[2.2.1]heptan-2-yl)acetamide]: the 50% effective concentration (EC50) was 68 nM.

For `CC(C)Nc1cc(-c2ccc3cc(C#N)cnn23)ncc1-c1nnc(N2C[C@H]3CC[C@@H](C2)[C@@H]3Nc2ncccc2F)s1` [Example 309], the EC50 amounted to 687 nM.

`CC(C)Nc1cc(-c2ccc3cc(C#N)cnn23)ncc1-c1nnc(N2C[C@H]3CC[C@@H](C2)[C@@H]3NC(=O)C2(C)COC2)s1` [Example 94]: the concentration giving a half-maximal response (EC50) was 4 nM.

As for `CC(=O)N[C@H]1CCN(c2nnc(-c3cnc(-c4ccc5cc(C#N)cnn45)cc3NC(C)C)s2)C1` [Compound 331], the EC50 came to 81.4 nM.

On to `CC1(O)CCN(c2nnc(-c3cnc(-c4ccc5cc(C#N)cnn45)cc3NC3(C)COC3)s2)CC1` [Example 181, 7-(5-(5-(4-hydroxy-4-methylpiperidin-l-yl)-1,3,4-thiadiazol-2-yl)-4-((3-methyloxetan-3-yl)amino)pyridin-2-yl)pyrrolo[1,2-b]pyridazine-3-carbonitrile], for which the concentration for a half-maximal effect (EC50) turned out to be 18.4 nM.

In the case of `CC(=O)N1CCC2(CC1)CN(c1nnc(-c3cnc(-c4ccc5cc(C#N)cnn45)cc3NC3CCOCC3)s1)C2` [Example 76, 7-(5-(5-(7-acetyl-2,7-diazaspiro[3.5]nonan-2-yl)-1,3,4-hiadiazol-2-yl)-4-((tetrahydro-2H-pyran-4-yl)amino)pyridin-2-yl)pyrrolo[1,2-b]pyridazine-3-carbonitrile], the 50% effective concentration (EC50) is 4.4 nM.

In the case of `CS(C)(=O)=NCC(=O)NC12CCC(c3nnc(-c4cnc(-c5ccc6cc(C#N)cnn56)cc4NC4CCOCC4)s3)(CC1)CC2` [Compound 338], the EC50 stood at 2.7 nM.
